US20050101530A1, “Cellular virus receptors and methods of use” (Topigen Pharmaceutique, Inc., priority 2001, published 2005)

Key:
[1] = target: human chemokine receptor CCR3 (human) (UniProt P51677); assay: cell-based or functional assay
[2] = target: T1, RSV-G protein and CCR3 receptor (Homo sapiens, UniProt P51677); assay: Anti-CCR3 immunoprecipitation and anti-RSV-G Western blot of RSV-infected Hep2 cells; type: cell-based; settings: Hep2 cells infected by RSV in the presence of 2 μg/ml of Eotaxin; FIG. 1 lane 3
T1 construct: physical contact between the CCR3 receptor and the RSV-G protein in Hep-2 cells; endogenous in cells; host or cells: Hep-2 epithelial cells (ATCC) infected with RSV A2 (ATCC)
T1 sequence (P51677 1-355): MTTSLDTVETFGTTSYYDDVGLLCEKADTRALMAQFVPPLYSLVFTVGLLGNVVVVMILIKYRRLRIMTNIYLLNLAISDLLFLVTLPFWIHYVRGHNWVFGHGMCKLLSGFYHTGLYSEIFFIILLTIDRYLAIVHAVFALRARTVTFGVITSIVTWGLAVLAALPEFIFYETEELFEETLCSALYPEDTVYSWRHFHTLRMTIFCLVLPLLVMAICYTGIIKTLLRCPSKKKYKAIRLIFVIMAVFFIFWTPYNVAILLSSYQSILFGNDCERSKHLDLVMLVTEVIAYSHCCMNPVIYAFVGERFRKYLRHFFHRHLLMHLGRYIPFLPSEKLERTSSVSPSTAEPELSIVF
Method: (§1) A549, Hep2, or GHOST cells were infected by RSV A2 strain at different multiplicity of infection (MOI). The results presented in this work were performed at a MOI of 1:0.1. The MOI 1:0.1 is the cut off of permissive and restrictive infection. The cells expressing the chemokine receptor CCR3 (Ghost-CCR3+, Hep2 and A549) were found permissive at a MOI 1:0.1 and the chemokine receptor CCR3 is considered as the high affinity coreceptor for RSV infection. Infection experiments undertaken with GHOST cells expressing only one of the following chemokine receptors the CCR1, CCR2b, CCR4, CCR5, CCR8 or CXCR4, were performed at a MOI of 1:2. These GHOST cells (CCR1, CCR-2b, CCR-4, CCR-5, CCR-8 and CXCR4), were not infected at a MOls of 1:0.1 and 1:1. The chemokine receptors CCR1, CCR2, CCR4, CCR5, CCR8 were considered subsequently as low affinity coreceptors in regard to RSV infection. […] These cells were not infected by RSV at a MOI 1:5 and lesser (1:4, 1:3, 1:2, 1:1 and 1:0.1).
Cells were infected by RSV for 2 hr incubation in the presence or the absence of 2 μg/ml of Eotaxin, or of PBS solution and cultured for 3 days. […]
Hep2 cells are known for being a permissive target cell for RSV infection and these cells express several chemokine receptors. […] However, keeping in mind that all cell extracts were normalized to the same quantity of proteins before being loaded into SDS-PAGE. […]

RSV A2 = assay: RSV plaque formation (infectivity) inhibition test in Hep-2 cell cultures; type: cell-based, respiratory syncytial virus (RSV) A2 strain; settings: Hep-2 cells
Method: The A2 strain of RSV was purchased from ATCC. The RSV was inoculated into a sub-confluent Hep-2 cell monolayer. […] The contents of the flask was resuspended in 1 ml aliquots, quick-frozen with alcohol/dry ice, and stored at −80° C. The virus titer of RSV was assessed by quantitative plaque forming assay and maintained titers in the range of 10^6 to 10^8pfu/ml for more than 6 months at −70° C.
Hep2 cells are known for being a permissive target cell for RSV infection and these cells express several chemokine receptors. Serial rounds of infections were performed with Hep-2 cells at different MOIs, ranging from 1:5 to 1:0.1. Hep-2 cells were systematically infected at these ranges of MOI. Subsequent experimental infection of Hep-2 cells with RSV were realized at a MOI 1:0.1. We investigated the role of the chemokine receptor CCR3 in supporting RSV infection. Immunoprecipitation technique followed by analysis of the immunoprecipitated complexes by SDS-PAGE were performed in order to gain insight into the physical contact between the RSV-G protein and the CCR3 receptor. Immunoprecipitation of the immune complexes will allow to assess, using SDS-PAGE and a specific antibody for the RSV-G protein, whether or not the contact of the virus glycoprotein with the cell receptor occurred. […] We noticed here that although the monoclonal antibody to RSV-G protein was diluted to 1:5000, it still cross reacted with a determinant of 43-45 kDa in all non infected or control cell types used in this work (see FIG. 1 lane 2). However, keeping in mind that all cell extracts were normalized to the same quantity of proteins before being loaded into SDS-PAGE. Therefore, the high intensity of the band, recognized by anti-RSV-G, and corresponding to the RSV-G protein precursor allowed us to differentiate between real infection and the background due to cross reactivity. We assessed if the CCR3 receptor was involved in virus infectivity of epithelial cells by performing RSV infectivity inhibition tests as described above. […]

RSV = RSV infection of CCR3 transfected GHOST cells, immunostaining; type: cell-based, respiratory syncytial virus (RSV) A2 strain; settings: Eotaxin 1 μg/ml, anti-RSV F-protein immunostaining, FIG. 3B
Method: as §1
We have also assessed whether CCR3 transfected GHOST cells support RSV infection and produce infectious virus. We performed this by using the same methods as described in FIG. 3. […]
After fixing the cells in 4% paraformaldehyde in phosphate buffered saline (PBS), the presence of virus was detected by immunostaining. […]

Substance: Eotaxin (from UniProt P51671 24-97) (ligand)
- percent inhibition of virus plaques formation (RSV A2 on Hep-2 cells) [1]: 80%

Substance: Rat anti-human CCR3 (clone 61828.111) (antibody)
- decrease in RSV infection of CCR3+ GHOST cells, immunostaining [1]: 80%

Substance: Eotaxin
- detection of RSV-G protein by RSV-G mAb in anti-CCR3 immunoprecipitated extracts [2]: failed to recognize the RSV-G protein
- percent inhibition of virus plaques formation (RSV A2; Eotaxin greater or equal to 0.5 μg/ml, compared to PBS-treated cultures, three days post infection): 80%
- RSV plaques as compared with PBS controls (RSV A2; each concentration of Eotaxin tested (0.01 to 1.0 μg/ml), p<0.05, Student's t-test): statistically fewer RSV plaques
- timing of inhibition of RSV infection (FIG. 2) (RSV A2; eotaxin added to culture medium, during virus adsorption): inhibited RSV infection most effectively early in infection
- RSV infection of GHOST/CCR3 cells by immunostaining (RSV): inhibits infection by RSV
- RSV infection of GHOST/CCR3 cells by immunostaining (RSV; listed as eotaxin): inhibits cellular infection by RSV
